Tested on: phenyl-p-benzoquinone induced writhing in mice
Experiment: Mouse antiphenylquinone (phenyl-p-benzoquinone induced) writhing test, oral
Conditions: for % mice blocked: 40 min
Protocol: Male CF1 mice obtained from Charles River Breeding Laboratories, fasted for 16-22 hours and weighing 18-22 g at the time of testing are used throughout. All mice are dosed sequentially by the oral route with solutions of indomethacin and/or of nalbuphine hydrochloride. A dosing volume of 10 ml/kg is used for each sequential solution. […] All doses are coded and the test is performed under a code not known to the observer.
A stock solution of indomethacin is prepared by dissolving dry indomethacin powder with an aqueous vehicle containing 2% by volume of Tween 80®, a pharmacological dispersant manufactured by Fisher Scientific Company and containing 100% polysorbate 80. All dosing solutions are prepared by dilution of the stock solution with the 2% Tween 80® vehicle; the vehicle control is 2% Tween 80®. All solutions are prepared fresh daily.
Stock solutions of nalbuphine HCl are prepared by dissolving dry nalbuphine hydrochloride powder with distilled water. All dosing solutions are prepared by dilution of the stock solution with distilled water; the vehicle control is distilled water.
As indicated above, the standard procedure based upon the prevention of phenyl-p-benzoquinone induced writhing in mice is utilized to detect and quantify the analgetic activity of compositions containing nalbuphine and indomethacin.
Mice, intubated with various doses of nalbuphine hydrochloride, indomethacin, combined doses of nalbuphine hydrochloride and indomethacin,or vehicle, are injected intraperitoneally with a standard challenge dose of phenyl-p-benzoquinone 5 minutes prior to the designated observation period. […] For scoring purposes a "writhe" is indicated by whole body stretching or contraction of the abdomen; mice are observed 10 minutes for the presence or absence of writhing beginning 5 minutes after receiving the phenyl-p-benzoquinone dose. Each mouse is used only once, then discarded. […] This dosage as described herein is referred to as the ED50.
In order to study the interaction between nalbuphine and indomethacin, 5 precise dosage ratios of nalbuphine hydrochloride and indomethacin were selected. Four or five coded doses of each selected combination were studied for analgesic effectiveness at 40 minutes using an experimental design which permits coding and complete randomization of the separate dosage forms tested. Altogether 35 separate dosage forms are used and each form is represented in each experimental session. The experiments are continued by running experimental sessions with an equal number of mice per group being tested until the total number, N, of mice tested per group is 60.

| SMILES | % mice blocked (indomethacin 0.398 mg/kg, nalbuphine HCl 0) [%] | % mice blocked (indomethacin 0.795 mg/kg, nalbuphine HCl 0) [%] | % mice blocked (indomethacin 1.59 mg/kg, nalbuphine HCl 0) [%] | % mice blocked (indomethacin 3.18 mg/kg, nalbuphine HCl 0) [%] | ED50 at 40 min, Indomethacin (amount of indomethacin in the ED50 dose) (mouse, N=60 mice/dose, indomethacin alone or as component of the fixed-ratio combination) [mg/kg] | % mice blocked (nalbuphine HCl 5.45 mg/kg, indomethacin 0) [%] | % mice blocked (nalbuphine HCl 10.9 mg/kg, indomethacin 0) [%] | % mice blocked (nalbuphine HCl 21.8 mg/kg, indomethacin 0) [%] | % mice blocked (nalbuphine HCl 43.6 mg/kg, indomethacin 0) [%] | % mice blocked (nalbuphine HCl 87.2 mg/kg, indomethacin 0) [%] | ED50 at 40 min, Nalbuphine HCl (amount of nalbuphine HCl in the ED50 dose) (mouse, N=60 mice/dose, nalbuphine HCl alone or as component of the fixed-ratio combination) [mg/kg] |
| --- | --- | --- | --- | --- | --- | --- | --- | --- | --- | --- | --- |
| COc1ccc2c(c1)c(CC(=O)O)c(C)n2C(=O)c1ccc(Cl)cc1 [Indomethacin, 1-(p-chlorobenzoyl)-5-methoxy-2-methylindole-3-acetic acid] | 18.3 | 30.0 | 78.3 | 85.0 | 1.08 | – | – | – | – | – | – |
| Oc1ccc2c3c1O[C@H]1[C@@H](O)CC[C@@]4(O)[C@@H](C2)N(CC2CCC2)CC[C@]314 [Nalbuphine, (-)-17-(cyclobutylmethyl)-4,5α-epoxymorphinan-3,6α,14-triol] | – | – | – | – | – | 10.0 | 13.3 | 46.7 | 66.7 | 66.7 | 35.5 |

Source: patent US4407804A, “Analgesic mixture of nalbuphine and indomethacin” (E. I. Du Pont de Nemours and Company, priority 1982, dated 1983)
